Assay results as given in article PMC5647335, “Controlling the bioactivity of a peptide hormone in vivo by reversible self-assembly” (Nature Communications, 2017).

Test system: CHO-hGLP-1R cells
Assay type: cell-based, Chinese hamster
Details: 48 h treatment, resazurin 5 h, fluorescence 590 nm; Oxm concentrations up to 1000-fold above the EC50; three independent experiments
Experimental: CHO-hGLP-1R cells in growth medium (DMEM, 10%FBS Sigma-Aldrich) were plated at 10,000 cells per well in 96-well black clear-bottom poly-D-lysine-coated microtiter plates (Corning, USA). […] Fluorescence emission was measured at 590 nm (560 nm excitation).

SMILES	in vitro cytotoxicity (cell viability)
Cn1cc(C2=C(c3cn(CCCSC(=N)N)c4ccccc34)C(=O)NC2=O)c2ccccc21 [Ro-318220]	expected curves of concentration vs. loss of cell viability
CN[C@@H]1C[C@H]2O[C@@](C)([C@@H]1OC)n1c3ccccc3c3c4c(c5c6ccccc6n2c5c31)C(=O)NC4 [staurosporine]	expected curves of concentration vs. loss of cell viability
